Literature values in US10632087B2, “Famciclovir and meloxicam combination therapy for functional somatic syndromes” (INNOVATIVE MED CONCEPTS, LLC., priority 2012, dated 2020).

Test system: fibromyalgia patients
Conditions: valacyclovir alone; not recommended as therapy for fibromyalgia

In the case of CC(C)[C@H](N)C(=O)OCCOCn1cnc2c(=O)[nH]c(N)nc21 [valacyclovir], the “treatment of fibromyalgia patients” value is given as “not successful”.
